According to US20240117385A1, “ENZYMES OF LUCIFERIN BIOSYNTHESIS AND USE THEREOF” (LIGHT BIO, INC., priority 2018, published 2024):

B1: Neonothopanus nambi hispidin hydroxylase: isolated recombinant hispidin hydroxylase from Neonothopanus nambi (protein, listed as Neonothopanus nambi)
chain: MASFENSLSVLIVGAGLGGLAAAIALRRQGHVVKIYDSSSFKAELGAGLAVPPNTLRSLQQLGCNTENLNGVDNLCFTAMGYDGSVGMMNNMTDYREAYGTSWIMVHRVDLHNELMRVALDPGGLGPPATLHLNHRVTFCDVDACTVTFTNGTTQSADLIVGADGIRSTIRRFVLEEDVTVPASGIVGFRWLVQADALDPYPELDWIVKKPPLGARLISTPQNPQSGVGLADRRTIIIYACRGGTMVNVLAVHDDERDQNTADWSVPASKDDLFRVFHDYHPRFRRLLELAQDINLWQMRVVPVLKKWVNKRVCLLGDAAHASLPTLGQGFGMGLEDAVALGTLLPKGTTASQIETRLAVYEQLRKDRAEFVAAESYEEQYVPEMRGLYLRSKELRDRVMGYDIKVESEKVLETLLRSSNSA
B2: SEQ ID NO: 135: plant type III polyketide synthase (PKS) (protein, listed as Wachendorfia thyrsiflora)
chain: MASTEGIQAYRNNMAEGPATIMAIGTANPPNVVDASTFPDYYWRVTNSEHLSPEYRVKLKRICERSSIRKRHLVLTEQLLKENPTLTTYVDASYDERQSIVLDAVPKLACEAAAKAIKEWGRPKTDITHMVVCTGAGVDVPGVDYKMMNLLGLPPTVNRVMLYNVGCHASGTVLRIAKDLAENNKGARVLVVSSEVSVMFFRGPAEGDVEILLGQALFGDGSAAIIVGADPIEGVEKPIFQIFSASQMTLPEGEHLVAGHLRELGLTFHLKPQLPNTVSSNIHKPLKKAFEPLNITDWNSIFWIVHPGGRAILDQVQEKIGLEENKLDVSRYVLAENGNMMSASVFFIMDEMRKRSAAQGCSTTGEGHEWGVLFGFGPGLSIETVVLHSVPLSI

Key:
[1] = test system: hispidin-synthase and caffeylpyruvate hydrolase with Neonothopanus nambi luciferase and hispidin hydroxylase; assay: Luminescence with recombinant hispidin-synthase, caffeylpyruvate hydrolase, luciferase and hispidin hydroxylase; assay type: biochemical; conditions: 0.2 μM
Method: The obtained enzymes were used for obtaining luminescence (bioluminescence) in reaction with Neonothopanus nambi luciferase and hispidin hydroxylase, obtained according to Example 4. 5 μl of each isolated recombinant protein solution were put into a glass tube, comprising 100 μl of the buffer (0.2 M of Na-phosphate buffer, 0.5 M of Na2SO4, 0.1% dodecylmaltoside (DDM) pH 8.0), 1 mM of NADPH (Sigma-Aldrich, USA), 10 mM of ATP (ThermoFisher Scientific, USA), 1 mM of CoA (Sigma-Aldrich, USA), 1 mM of malonyl-CoA (Sigma-Aldrich, USA) and 0.2 μM of one of 3-arylacrylic acids: paracoumaric acid (Sigma-Aldrich, USA), cinnamic acid (Sigma-Aldrich, USA) or ferulic acid (Abcam, USA). In the other experiment instead of substituted 3-arylacrylic acid the analogues of fungal oxyluciferin—(2E,5E)-2-hydroxy-6-(4-hydroxyphenyl)-4-oxohexa-2,5-diene, (2E,5E)-2-hydroxy-4-oxo-6-phenylhexa-2,5-diene, or (2E,5E)-2-hydroxy-6-(4-hydroxy-3-methoxyphenyl)-4-oxohexa-2,5-diene acids—also at concentration of 0.2 μM were put into a glass tube. The glass tubes were placed into a luminometer.

[2] = test system: luciferase and hispidin hydroxylase of Neonothopanus nambi; assay: Hispidin hydroxylase with hispidin analogues in cell lysate; assay type: biochemical; conditions: 660 μg/ml, 1 mM NADPH, pH 8.0
Method: HEK293NT cells, expressing luciferase and hispidin hydroxylase of Neonothopanus nambi, obtained according to Example 2, were rinsed from Petri dishes 24 hours after transfection with Versene solution laced with 0.025% of trypsin, the medium was replaced by phosphate-buffered saline with pH 8.0 by centrifugation, the cells were resuspended, lysed by ultrasound in Bioruptor (Diagenode, Belgium) with in 7 minutes at 0° C. in conditions recommended by the manufacturer, and 1 mM of NADPH (Sigma-Aldrich, USA), and also hispidin or one of its analogues were added to the medium: (E)-4-hydroxy-6-(4-hydroxystyryl)-2H-pyran-2-one, (E)-6-(2-(1H-indol-3-yl)vinyl)-4-hydroxy-2H-pyran-2-one, (E)-6-(2-(1,2,3,5,6,7-hexahydropyrido[3,2,1-ij]quinolin-9-yl)vinyl)-4-hydroxy-2H-pyran-2-one, E)-6-(4-(diethylamino)styryl)-4-hydroxy-2H-pyran-2-one, or (E)-4-hydroxy-6-(2-(6-hydroxynaphthalene-2-yl)vinyl)-2H-pyran-2-one at concentration of 660 μg/ml. Bioluminescence spectra were detected by spectrofluorometer Varian Cary Eclipse. […] Depending on luciferin used the expected displacement of luminescence peak was observed.

[3] = test system: recombinant hispidin hydroxylase from Neonothopanus nambi; assay: HPLC analysis of hydroxylation by recombinant hispidin hydroxylase; assay type: biochemical; conditions: 0.2 μM substrate, 1 mM NADPH, 30 minutes
Method: The isolated recombinant hispidin hydroxylase from Neonothopanus nambi, obtained according to Example 4, was added to reaction mixtures comprising 1 mM of NADPH and 0.2 μM of hispidin, (E)-4-hydroxy-6-styryl-2H-pyran-2-one or (E)-4-hydroxy-6-(4-hydroxystyryl)-2H-pyran-2-one in 100 μl of the buffer (0.2 M of Na-phosphate buffer, 0.5 M of Na2SO4, 0.1% dodecylmaltoside (DDM) pH 8.0). In 30 minutes, the reaction mixture was analyzed by HPLC using synthetic luciferins as standards.

[4] = test system: recombinant hispidin hydroxylases; assay: Functionality test of isolated recombinant hispidin hydroxylases in luminometer; assay type: biochemical; conditions: 0.2 μM hispidin, 1 mM NADPH, Neonothopanus nambi luciferase
Method: Polyhistidine sequence (His tag) was operatively attached to 5′-end of nucleic acids coding hispidin-3-hydroxylases and luciferase from Neonothopanus nambi, obtained according to the examples 1 and 2. The obtained structures were cloned into pET-23 vector by means of restriction endonucleases BamHI and HindIII. The vector was used for transformation of Escherichia coli cells of BL21-DE3 strain. The cells were dispersed in Petri dishes with LB medium, comprising 1.5% of agar, 100 μg/ml of ampicillin, and incubated overnight at 37° C. Then, Escherichia coli colonies were transferred into 4 ml of liquid LB medium laced with ampicillin, incubated overnight at 37° C. with fluctuation. 1 ml of overnight culture was transferred into 100 ml of Overnight Express Autoinduction medium (Novagen), where ampicillin was preliminarily added to. The culture was grown at 37° C. within 2.5 hours until reaching optical density of 0.6 OE at 600 nm, and then it was grown at room temperature within 16 hours. […]
Aliquots of isolated recombinant hispidin hydroxylases were used for testing functionality and stability. […] In all cases the luminescence intensity when using hispidin was the highest when using Neonothopanus nambi hispidin hydroxylase and the lowest when using Armillaria mellea hispidin hydroxylase.

[5] = test system: Pichia pastoris GS115 yeast cells expressing luciferase, hispidin hydroxylase and coumarate-CoA ligase 1; assay: Screening of PKS for hispidin-synthase activity in yeast colonies sprayed with caffeic acid; assay type: cell-based; conditions: colonies sprayed with caffeic acid solution
Text: The selected nucleotide sequences for expression in Pichia pastoris yeast cells and Nicotiana benthamiana plant cells were optimized. The resulting nucleic acids were obtained synthetically and cloned into pGAPZ vector and used for verifying ability of the expressed proteins to synthesize hispidin.
For this purpose, in genome of Pichia pastoris GS115 yeast line, constitutively expressing Neonothopanus nambi luciferase and hispidin hydroxylase, obtained according to Example 1, there was additionally introduced pGAPZ plasmid, comprising gene of
Arabidopsis thaliana coumarate-CoA ligase 1 (which nucleotide and amino acid sequence are shown in SEQ ID NOs: 140, 141), also obtained by oligonucleotide synthesis. The plasmid was linearized at restriction site AvrII and used for transformation into Pichia pastoris GS115 cells.
The obtained yeast cells, constitutively expressing Neonothopanus nambi luciferase and hispidin hydroxylase and Arabidopsis thaliana coumarate-CoA ligase 1, were […] by plasmids comprising coding PKS sequences, and dispersed in Petri dishes with RDB medium, comprising 1 M of sorbitol, 2% (weight/volume) of glucose, 1.34% (weight/volume) of yeast nitrogen base (YNB), 0.005% (weight/volume) of amino acids mixture, 0.00004% (weight/volume) of biotin and 2% (weight/volume) of agar. To identify enzymes having hispidin-synthase activity, the obtained colonies were sprayed with caffeic acid solution, detecting hispidin-synthase presence in cells by occurrence of luminescence. Luminescence emitted by colonies was detected by means of IVIS Spectrum CT (Perkin Elmer, USA). Yeast line constitutively expressing luciferase, hispidin hydroxylase and coumarate-CoA ligase 1, and also wild yeast cells were used as negative control. […] Amino acid sequences coded by then are shown in SEQ ID NOs: 119, 121, 123, 125, 127, 129, 131, 133, 135, 137, 139 respectively.

| Molecule | luminescence in reaction [1] | Luminescence in lysates [2] | further results |
| --- | --- | --- | --- |
| O=C(/C=C/c1ccccc1)/C=C(/O)C(=O)O [(2E,5E)-2-hydroxy-4-oxo-6-phenylhexa-2,5-diene acid] | resulted in luminescence |  |  |
| COc1cc(/C=C/C(=O)/C=C(/O)C(=O)O)ccc1O [(2E,5E)-2-hydroxy-6-(4-hydroxy-3-methoxyphenyl)-4-oxohexa-2,5-diene acid] | resulted in luminescence |  |  |
| O=C(/C=C/c1ccc(O)cc1)/C=C(/O)C(=O)O [(2E,5E)-2-hydroxy-6-(4-hydroxyphenyl)-4-oxohexa-2,5-diene acid] | resulted in luminescence |  |  |
| O=c1cc(O)cc(/C=C/c2ccc3cc(O)ccc3c2)o1 [(E)-4-hydroxy-6-(2-(6-hydroxynaphthalene-2-yl)vinyl)-2H-pyran-2-one] |  | Luminescence in lysates was observed |  |
| O=c1cc(O)cc(/C=C/c2ccc(O)cc2)o1 [(E)-4-hydroxy-6-(4-hydroxystyryl)-2H-pyran-2-one] |  | Luminescence in lysates was observed | HPLC detection of hydroxylated product [3]: occurrence of peaks corresponding to 3d position hydroxylated derivatives |
| O=c1cc(O)cc(/C=C/c2ccccc2)o1 [(E)-4-hydroxy-6-styryl-2H-pyran-2-one] |  |  | HPLC detection of hydroxylated product [3]: occurrence of peaks corresponding to 3d position hydroxylated derivatives |
| O=c1cc(O)cc(/C=C/c2cc3c4c(c2)CCCN4CCC3)o1 [(E)-6-(2-(1,2,3,5,6,7-hexahydropyrido[3,2,1-ij]quinolin-9-yl)vinyl)-4-hydroxy-2H-pyran-2-one] |  | Luminescence in lysates was observed |  |
| O=c1cc(O)cc(/C=C/c2c[nH]c3ccccc23)o1 [(E)-6-(2-(1H-indol-3-yl)vinyl)-4-hydroxy-2H-pyran-2-one] |  | Luminescence in lysates was observed |  |
| CCN(CC)c1ccc(/C=C/c2cc(O)cc(=O)o2)cc1 [(E)-6-(4-(diethylamino)styryl)-4-hydroxy-2H-pyran-2-one] |  | Luminescence in lysates was observed |  |
| O=C(O)/C=C/c1ccccc1 [cinnamic acid] | resulted in luminescence |  |  |
| COc1cc(/C=C/C(=O)O)ccc1O [ferulic acid] | resulted in luminescence |  |  |
| O=C(O)/C=C/c1ccc(O)cc1 [paracoumaric acid] | resulted in luminescence |  |  |
| B1 |  |  | luminescence intensity when using hispidin (comparison of hispidin hydroxylases) [4]: highest |
| B2 |  |  | hispidin-synthase activity [5]: had hispidin-synthase activity |
